Laboratory results from patent US12024715B2, “Compositions and methods for improved T cells” (Temple University-Of The Commonwealth System of Higher …, priority 2017, dated 2024).

How the values were obtained:
[1] = system: Id3, Id2, Eomes and Prdm1; assay: Real-time RT-PCR analysis of Ezh2-targeted genes in cultured Pmel-1 cells; assay type: cell-based, mouse; settings: WT Pmel-1 cells, anti-CD3/CD28 Ab+IL-2, inhibitor treatment for 7 days
Method: Splenic and LN CD44loCD8+ TN cells were prepared as previously described (Zhang et al., 2002, J Immunol, 169:7111-7118; Zhang et al., 2005, Nat Med, 11:1299-1305). The purity was usually 90-95%. CD8+ T cell cultures were set up as previously described (He et al., 2013, Blood, 122:4119-4128; Tong et al., 2014, J Immunol, 192:5012-5022). In brief, CD44loCD8+ naive T cells (were cultured in the presence of anti-CD3 (2 μg/ml) and anti-CD28 (2.0 μg/ml) Abs together with recombinant human IL-2 (10 ng/ml; R&D Systems). In vivo sorted T cells and cultured T cells were restimulated with anti-CD3 Ab (1 μg/ml; BioLegend) or human gp100 (10^−6 M) for 5 hours before intracellular staining. Bone marrow-derived dendritic cells (DCs) were generated as previously described (Zhang et al., 2005, Nat Med, 11:1299-1305). For TAT-Cre experiments, 10^6 purified CD8^+ T cells or splenocytes were incubated in 100 μL serum-free RPMI containing 90 to 100 μg/mL TAT-Cre fusion protein for 16 hours at 37° C. After extensive washing, treated cells were kept in vitro culture for another 5 days.
The MigR1 retroviral vector system was described previously (Tong et al., 2014, J Immunol, 192:5012-5022; Pear et al., 1998, Blood, 92:3780-3792). Ezh2, Ezh2 mutants, and Id3 cDNA was cloned into Mig-R1 (GFP) vector. For retroviral infection, CD8+ T cells were prestimulated with anti-CD3/CD28 Ab for 24 hours, and then the retrovirus supernatant was added in the presence of 8 μg/ml polybrene (Sigma). Cells were spinoculated at 3000 rpm, 32° C. for 3 hours. The same retroviral infection procedure was repeated 24 hours later (Tong et al., 2014, J Immunol, 192:5012-5022).
RNA was isolated with an RNeasy Mini kit (Qiagen) and cDNA was generated by reverse transcription (Applied Biosystems). Real-time RT-PCR was performed with a SYBR green PCR mix (ABI Biosystems) in the Realplex Eppendorf Real-time PCR instrument (Eppendorf AG). Gene expression levels were calculated relative to the 18s gene. Data were collected and quantitatively analyzed on a Realplex sequence detection system (Eppendorf AG), and Applied Biosystems StepOne Plus Real-time PCR systems (Applied Biosystems).

pEzh2S21 and H3K27me3 = assay: Immunoblot analysis of TCR-activated Pmel-1 CD8+ T cells; assay type: cell-based, mouse; settings: proliferating Pmel-1 CD8+ T cells stimulated in vitro for 7 days, with or without MK2206
[2] = system: promoter regions of Id3, Id2, Eomes and Prdm1 loci; assay: ChIP analysis of Ezh2 and H3K27me3 deposition in cultured Pmel-1 cells; assay type: cell-based, mouse; settings: Akt inhibition
Method: A Millipore ChIP kit and Diagenode ChIP kit was used for ChIP assay as described by the manufacturer. DNA-protein complexes were crosslinked with formaldehyde at a final concentration of 1%. Sonicated extracts were precleared and incubated with Abs specific to Ezh2, H3K27me3, or nonspecific anti-IgG. The immunoprecipitated DNA was quantified by real-time quantitative PCR.

B16 melanoma = assay: Adoptive transfer of Pmel-1 cells into B6 mice with pre-established B16 melanoma, tumor size over time; assay type: in vivo, mouse; settings: Pmel-1 cells treated during ex vivo culture, transferred into B16 melanoma-bearing B6 mice
Method: Pmel-1 T cells (1×10^4 to 1×10^6) were transferred into sublethally irradiated B6 mice (5.0 Gy). IL-2 (100,000 IU) was administered intraperitoneally twice a day, and BM-derived DCs which have been pulsed with gp100 (10 μg) were transferred via tail vein, for constitutively three days after adoptive transfer. C57BL/6 mice were injected subcutaneously with 5×10^5 B16 melanoma cells. In some experiments, Ezh2^fl/fl mice were intravenously received VVA-gp100 or VVA-OVA.
The Abs used for flow cytometric analyses were purchased from eBioscience, BioLegend, or BD Biosciences. Flow cytometric analyses were performed with FACS LSRII (BD Biosciences) as described (Zhang et al., 2005, Nat Med, 11:1299-1305; Zhang et al., 2002, J Immunol, 169:7111-7118). B16 mouse melanoma cell line was from American Type Culture Collection.

In the case of `NC1(c2ccc(-c3nc4ccn5c(=O)[nH]nc5c4cc3-c3ccccc3)cc2)CCC1` [MK2206], the Eomes expression [1] is reported as “reducing”, the Id2 expression [1] is reported as “reducing” and the Id3 expression [1] is reported as “upregulated”. The Prdm1 expression [1] was “reducing”, the “H3K27me3 (immunoblot)” value (pEzh2S21 and H3K27me3) was “increase” and the “pEzh2S21 (immunoblot)” value (pEzh2S21 and H3K27me3) was “marked decrease”. For the same compound, the “amount of Ezh2 at the promoter regions of Id3, Id2, Eomes and Prdm1 loci” value [2] was “significantly increased”, the “amount of H3K27me3 at the promoter regions of Id3, Id2, Eomes and Prdm1 loci” value [2] was “significantly increased” and the “anti-tumor activity (tumor growth)” value (B16 melanoma) was “greater anti-tumor activity than untreated Pmel-1 cells, but was less potent than Ezh2S21A-transduced Pmel-1 cells”.
With `Oc1cccc(-c2nc(N3CCOCC3)c3oc4ncccc4c3n2)c1` [PI103] the Eomes expression [1] was “reducing”, the Id2 expression [1] was “reducing” and the Id3 expression [1] was “upregulated”. The Prdm1 expression [1] was “reducing”.
